Laboratory results from ChEMBL document CHEMBL1154755, “Discovery of 6alpha-ethyl-23(S)-methylcholic acid (S-EMCA, INT-777) as a potent and selective agonist for the TGR5 receptor, a novel target for diabesity” (J Med Chem, 2009).

Columns and labels:
[1] = Metabolic stability in bile fistula rat model assessed as intact drug level recovered in bile at 1 umol/min/kg, iv over 1 hr; type: ADME, organism-based; settings: in vivo
[2] = Metabolic stability in bile fistula rat model assessed as intact drug level recovered in bile at 1 umol/min/kg administered intraduodenally over 1 hr; type: ADME; settings: in vivo, other
[3] = Metabolic stability in human stool broth culture assessed as unmodified drug level after 12 hrs; type: ADME; settings: read-out: Stability

Row | Structure (SMILES) | Stability [1] [%Idose] | Stability [2] [%Idose] | remaining at 12 h [3] [%]
1 | CC[C@H]1[C@@H](O)[C@@H]2[C@H](C[C@H](O)[C@]3(C)[C@@H]([C@H](C)C[C@@H](C)C(=O)O)CC[C@@H]23)[C@@]2(C)CC[C@@H](O)C[C@@H]12 | 65 | 68 | 
2 | CC[C@H]1[C@@H](O)[C@@H]2[C@H](C[C@H](O)[C@]3(C)[C@@H]([C@H](C)C[C@H](C)C(=O)O)CC[C@@H]23)[C@@]2(C)CC[C@@H](O)C[C@@H]12 | 93 | 94 | > 95
3 | C[C@H](CCC(=O)O)[C@H]1CC[C@H]2[C@@H]3[C@H](O)C[C@@H]4C[C@H](O)CC[C@]4(C)[C@H]3CC[C@]12C [CHENODIOL] | 4 | 3 | 
4 | C[C@H](CCC(=O)O)[C@H]1CC[C@H]2[C@@H]3[C@H](O)C[C@@H]4C[C@H](O)CC[C@]4(C)[C@H]3C[C@H](O)[C@]12C [CHOLIC ACID] | 8 | 12 | 
